This passage reports EC50, Kd and IC50 results from patent US20200385371A1 (Propellon Therapeutics Inc., priority 2017, published 2020).

The term pEC50 denotes the EC50 on a negative log10 scale, so that one unit is a factor of ten. As usually defined, the pKd is the negative decadic logarithm of the Kd, by convention in mol/L. For orientation: pIC50 means the IC50 on a negative log10 scale, so that one unit is a factor of ten.

The test system of one experiment is MV4-11 cells. Kind of experiment: Cell proliferation assay (ATPlite). Particulars: Homo sapiens; for pEC50: 120 h, MV4-11 cells, five days, read-out: GI MV411 EC50; for pIC50: MV4-11, Table 2. The class given is cell-based. On the procedure: MV4-11 cells were seeded into a 96-well plate at 1,000 cells/well in 150 μl medium (Alpha-MEM containing 10% FBS, 100 μg/ml Normocin, and 50 μg/ml Gentamycin, Invitrogen). A HP D300 digital dispenser was used to dose cells with DMSO or test compounds across a 10-point range of concentrations (high dose of 10 μM), and cultures were grown in a humidified 5% CO2 incubator at 37° C. After five days, plates were removed from incubator and equilibrated to room temperature. An equal volume of ATPlite assay reagent was added to each well, and samples were processed according to manufacturer's instructions (Perkin Elmer). Luminescent signal was measured using an Envision plate reader equipped with a US-Luminescence detector.
(Cellular ATP, detected with luciferase, serves as a proxy for viable cell number.)

The target of experiment [1] is T1, WDR5 (Homo sapiens, UniProt P61964). Kind of experiment: Surface Plasmon Resonance (SPR) assay. The class given is binding. Further details: Full length WDR5 with an N-terminal His tag and C-terminal AviTag; His tag (N); made in house; host or cells: E. coli. The method, then: Exemplary compounds of the application were dissolved in 100% DMSO at 10 mM, assayed fresh, and then stored at −20° C. for repeat studies and other experiments. Full length WDR5 with an N-terminal His tag and C-terminal AviTag (Avidity Inc.) was expressed in E. coli with coexpression of BirA to biotin label the protein in vivo. Purification was via Ni-NTA.
SPR studies were performed using a Biacore™ T200 instrument (GE Health Sciences Inc.). Biotinylated WDR5 protein (approximately 3000RU) was stably captured to streptavidin coupled SA chips according to the manufacture's protocol (GE Health Sciences Inc.). The running buffer used was HBS-EP (20 mM Hepes pH 7.4, 150 mM NaCl, 3 mM EDTA, 0.05% P-20) plus 5% DMSO with a flow rate of 40 μl/min. For SPR analysis, 5 different concentrations of each exemplary compound of the application were sprayed into 96 or 384 well plates using an HP D300 digital dispenser. The concentration ranged from about 195 nM to about 12 nM in a two-fold series. […] Curve fitting and KD calculations were performed with the Biacore T200 Evalutation software (GE Health Sciences Inc).

The target of experiment [2] is T1, WDR5. Kind of experiment: Fluorescence Polarization (FP) binding assay. The method, then:
H3 (1-15) ([…]), and 9-Ala-FAM ((Ac)-[…]-(Ahx-Ahx)-K(5,6-FAM)) (where Ahx represents 6 amino hexanoic acid linkers) peptides for WDR5 were synthesized, N-terminal-labeled with isothiocyanate-fluorescein, and purified by Tufts University Core Services (Boston, Mass.). Compound binding assays were performed at a constant labeled peptide concentration of 30 or 20 nM for H3 (1-15) and 9-Ala-FAM respectively. WDR5 concentrations of 0.3 μM for H3 (1-15) and 0.05 μM for 9-Ala-FAM were used. For both the H3 (1-15) and 9-Ala-FAM peptides, 80 mM sodium phosphate buffer (pH 6.5), 20 mM KCl, and 0.008% Triton X-100 was used. For the H3 (1-15) peptide, FP assays were measured in 10 μl aliquots in 384-well Axygen plates using a Synergy 4 microplate reader (BioTek) with an excitation wavelength of 485 nm and emission wavelength of 528 nm. For the 9-Ala-FAM peptide, FP assays were measured in 125 μl aliquots in 96 well Microfluor plates using a ViewLux instrument (Perkin Elmer) with an excitation wavelength of 480 nm and emission wavelength of 540 nm. To determine Kdsp values, the data were fit to a hyperbolic function using Sigma Plot software (Systat Software). The Kdisp values represent the average of quadruplicate measurements.

pEC50, pIC50, pKd: −log10 of the molar value. Like-named read-outs stand apart in the source and are kept apart here.

On to `C[C@@H]1CN(c2cc(F)c(-c3cnc(N4CCOCC4)nc3)c(F)c2NC(=O)c2c[nH]c(=O)cc2C(F)(F)F)C[C@H](C)N1C` [Example 2, N-(2,4-difluoro-3-(2-morpholinopyrimidin-5-yl)-6-((3S,5R)-3,4,5-trimethylpiperazin-1-yl)phenyl)-6-oxo-4-(trifluoromethyl)-1,6-dihydropyridine-3-carboxamide], for which, in the experiment with MV4-11 cells, the pEC50 was 7.52. At WDR5 [1] (read-out: SPR Kd), the negative-log Kd (pKd) is 8.43. Further, the pIC50 on WDR5 [2] is 7.79.

With `C[C@@H]1CN(c2ncc(-c3c(F)cc(N4C[C@@H](C)N(C)[C@@H](C)C4)c(NC(=O)c4c[nH]c(=O)cc4C(F)(F)F)c3F)cn2)C[C@H](C)O1` [Example 8, N-(3-(2-((2S,6R)-2,6-dimethylmorpholino)pyrimidin-5-yl)-2,4-difluoro-6-((3S,5R)-3,4,5-trimethylpiperazin-1-yl)phenyl)-6-oxo-4-(trifluoromethyl)-1,6-dihydropyridine-3-carboxamide], the pEC50 with MV4-11 cells is 7.51. Besides, on WDR5 [1] (read-out: SPR Kd), the pKd was 9.09. The pIC50 at WDR5 [2] is 7.67.

On to `C[C@@H]1CN(c2cc(F)c(-c3ccc(N4CCOCC4)c(F)c3)c(F)c2NC(=O)c2c[nH]c(=O)cc2C(F)(F)F)C[C@H](C)N1C` [Example 9, 6-Oxo-N-(2,3′,6-trifluoro-4′-morpholino-4-((3S,5R)-3,4,5-trimethylpiperazin-1-yl)-[1,1′-biphenyl]-3-yl)-4-(trifluoromethyl)-1,6-dihydropyridine-3-carboxamide], for which the pEC50 in the experiment on MV4-11 cells was 6.91. Besides, the pKd at WDR5 [1] (read-out: SPR Kd) is 8.88. Besides, at WDR5 [2], the pIC50 is 7.82.

`C[C@@H]1CN(c2cc(F)c(-c3cnc(N4CCOCC4)nc3)c(F)c2NC(=O)c2ccc(F)cc2C(F)(F)F)C[C@H](C)N1C` [Example 10, N-(2,4-difluoro-3-(2-morpholinopyrimidin-5-yl)-6-((3S,5R)-3,4,5-trimethylpiperazin-1-yl)phenyl)-4-fluoro-2-(trifluoromethyl)benzamideformic acid]: in the experiment with MV4-11 cells, the pEC50 is 7.23. Further, on WDR5 [1] (read-out: SPR Kd), the pKd was 9.48. Further, the pIC50 on WDR5 [2] is 8.00.

In the case of `CC(C)OC(=O)N1CCC=C(c2c(F)cc(N3C[C@@H](C)N(C)[C@@H](C)C3)c(NC(=O)c3c[nH]c(=O)cc3C(F)(F)F)c2F)C1` [Example 13, Isopropyl 5-(2,6-difluoro-3-(6-oxo-4-(trifluoromethyl)-1,6-dihydropyridine-3-carboxamido)-4-((3S,5R)-3,4,5-trimethylpiperazin-1-yl)phenyl)-3,6-dihydropyridine-1(2H)-carboxylate], in the experiment with MV4-11 cells, the pEC50 was 6.76. Besides, the pKd at WDR5 [1] (read-out: SPR Kd) was 8.72. Also, the pIC50 at WDR5 [2] was 7.84.

`C[C@@H]1CN(c2cc(F)c(C3=CCCN(C(=O)OC4CC(F)(F)C4)C3)c(F)c2NC(=O)c2c[nH]c(=O)cc2C(F)(F)F)C[C@H](C)N1C` [Example 20, 3,3-Difluorocyclobutyl 5-(2,6-difluoro-3-(6-oxo-4-(trifluoromethyl)-1,6-dihydropyridine-3-carboxamido)-4-((3S,5R)-3,4,5-trimethylpiperazin-1-yl)phenyl)-3,6-dihydropyridine-1(2H)-carboxylate]: in the experiment with MV4-11 cells, the pEC50 was 6.82. Besides, the pKd at WDR5 [1] (read-out: SPR Kd) is 8.69. On WDR5 [2], the pIC50 is 7.85.

For `CC(C)OC(=O)N1CCC=C(c2c(F)cc(N3C[C@@H](C)N(C)[C@@H](C)C3)c(NC(=O)c3c[nH]c(=O)cc3C(F)F)c2F)C1` [Example 23, Isopropyl 5-(3-(4-(difluoromethyl)-6-oxo-1,6-dihydropyridine-3-carboxamido)-2,6-difluoro-4-((3S,5R)-3,4,5-trimethylpiperazin-1-yl)phenyl)-3,6-dihydropyridine-1(2H)-carboxylate], the pKd at WDR5 [1] (read-out: SPR Kd) is 8.55. Also, on WDR5 [2], the pIC50 is 7.50.

Consider `CNC(=O)c1ccc(-c2c(F)cc(N3C[C@@H](C)N(C)[C@@H](C)C3)c(NC(=O)c3c[nH]c(=O)cc3C(F)(F)F)c2F)cc1F` [Example 24, 6-Oxo-N-(2,3′,6-trifluoro-4′-(methylcarbamoyl)-4-((3S,5R)-3,4,5-trimethylpiperazin-1-yl)-[1,1′-biphenyl]-3-yl)-4-(trifluoromethyl)-1,6-dihydropyridine-3-carboxamide], for which the pEC50 in the experiment with MV4-11 cells is 7.00. Also, the pKd at WDR5 [1] (read-out: SPR Kd) was 8.52. The pIC50 on WDR5 [2] is 7.60.

In the case of `C[C@@H]1CN(c2cc(F)c(-c3ccc(C(N)=O)c(F)c3)c(F)c2NC(=O)c2c[nH]c(=O)cc2C(F)(F)F)C[C@H](C)N1C` [Example 25, N-(4′-carbamoyl-2,3′,6-trifluoro-4-((3S,5R)-3,4,5-trimethylpiperazin-1-yl)-[1,1′-biphenyl]-3-yl)-6-oxo-4-(trifluoromethyl)-1,6-dihydropyridine-3-carboxamide], in the experiment on MV4-11 cells, the pEC50 is 6.83. Further, the pKd at WDR5 [1] (read-out: SPR Kd) was 8.69. At WDR5 [2], the pIC50 was 7.71.

As to `C[C@@H]1CN(c2cc(F)c(-c3ccc(C(N)=O)c(F)c3F)c(F)c2NC(=O)c2c[nH]c(=O)cc2C(F)(F)F)C[C@H](C)N1C` [Example 26, N-(4′-carbamoyl-2,2′,3′,6-tetrafluoro-4-((3S,5R)-3,4,5-trimethylpiperazin-1-yl)-[1,1′-biphenyl]-3-yl)-6-oxo-4-(trifluoromethyl)-1,6-dihydropyridine-3-carboxamide], the pEC50 with MV4-11 cells is 6.50. Besides, the pKd at WDR5 [1] (read-out: SPR Kd) is 8.35. Further, the pIC50 at WDR5 [2] is 7.65.

With `C[C@@H]1CN(c2cc(F)c(-c3ccc(C(=O)NC(C)(C)CC(C)(C)C)c(F)c3F)c(F)c2NC(=O)c2c[nH]c(=O)cc2C(F)(F)F)C[C@H](C)N1C` [Example 27, 6-Oxo-N-(2,2′,3′,6-tetrafluoro-4′-((2,4,4-trimethylpentan-2-yl)carbamoyl)-4-((3S,5R)-3,4,5-trimethylpiperazin-1-yl)-[,1′-biphenyl]-3-yl)-4-(trifluoromethyl)-1,6-dihydropyridine-3-carboxamide], the pEC50 in the experiment on MV4-11 cells was 6.66. Also, the pKd on WDR5 [1] (read-out: SPR Kd) is 8.95. Also, at WDR5 [2], the pIC50 was 7.46.

For the molecule `C[C@@H]1CN(c2cc(F)c(-c3ccc(F)c(C(N)=O)c3)c(F)c2NC(=O)c2c[nH]c(=O)cc2C(F)(F)F)C[C@H](C)N1C` [Example 28, N-(3′-carbamoyl-2,4′,6-trifluoro-4-((3S,5R)-3,4,5-trimethylpiperazin-1-yl)-[1,1′-biphenyl]-3-yl)-6-oxo-4-(trifluoromethyl)-1,6-dihydropyridine-3-carboxamide], in the experiment on MV4-11 cells, the pEC50 was 5.54. Moreover, at WDR5 [1] (read-out: SPR Kd), the pKd was 8.30. In addition, the pIC50 at WDR5 [2] was 7.44.

Consider `CNC(=O)c1cc(-c2c(F)cc(N3C[C@@H](C)N(C)[C@@H](C)C3)c(NC(=O)c3c[nH]c(=O)cc3C(F)(F)F)c2F)ccc1F` [Example 29, 6-Oxo-N-(2,4′,6-trifluoro-3′-(methylcarbamoyl)-4-((3S,5R)-3,4,5-trimethylpiperazin-1-yl)-[1,1′-biphenyl]-3-yl)-4-(trifluoromethyl)-1,6-dihydropyridine-3-carboxamide], for which, in the experiment on MV4-11 cells, the pEC50 is 5.95. In addition, the pKd on WDR5 [1] (read-out: SPR Kd) is 8.41. The pIC50 on WDR5 [2] was 7.65.

For the molecule `C[C@@H]1CN(c2cc(F)c(-c3cnc(N4CCOCC4)nc3)cc2NC(=O)c2c[nH]c(=O)cc2C(F)(F)F)C[C@H](C)N1C` [reference compound], the pIC50 with MV4-11 cells was 7.60.

On to `C[C@@H]1CN(c2c(F)cc(-c3cnc(N4CCOCC4)nc3)cc2NC(=O)c2c[nH]c(=O)cc2C(F)(F)F)C[C@H](C)N1C` [reference compound], for which the pIC50 in the experiment with MV4-11 cells is 5.45. The pKd at WDR5 [1] (Table 2, effect of difluoro substitution, read-out: KD (SPR)) is 7.11.
